# Values quoted from earlier work, collected in patent US20240299372A1, “Transdermal Drug Delivery Systems for Administration of a Therapeutically Effective Amount of Apixaban and Other Direct Oral Anticoagulants” (Pike Therapeutics Inc., priority 2023, published 2024).
# Columns and labels:
# [1] = for Absolute oral bioavailability: oral administration; for bioavailability: oral, background statement on GI tract exposure
# [2] = oral administration; literature refs [1-4]
SMILES,Absolute oral bioavailability [1],bleeding complications as reason for DOAC discontinuation [2],bioavailability [1]
"COc1ccc(-n2nc(C(N)=O)c3c2C(=O)N(c2ccc(N4CCCCC4=O)cc2)CC3)cc1 [Apixaban, 1-(4-methoxyphenyl)-7-oxo-6-[4-(2-oxopiperidin-1-yl)phenyl]-4,5-dihydropyrazolo[3,4-c]pyridine-3-carboxamide]",approx. 50%,5.7-10.1%,
"COc1ccc(NC(=O)c2ccc(C(=N)N(C)C)cc2)c(C(=O)Nc2ccc(Cl)cn2)c1 [Betrixaban, N-(5-chloropyridin-2-yl)-2-[[4-(N,N-dimethylcarbamimidoyl)benzoyl]amino]-5-methoxybenzamide]",approx. 34%,,
"[H]/N=C(/N)c1ccc(NCc2nc3cc(C(=O)N(CCC(=O)O)c4ccccn4)ccc3n2C)cc1 [Dabigatran, 3-[[2-[(4-carbamimidoylanilino)methyl]-1-methylbenzimidazole-5-carbonyl]-pyridin-2-ylamino]propanoic acid]",3%-7,3.4-9.7%,6%
"CN1CCc2nc(C(=O)N[C@@H]3C[C@@H](C(=O)N(C)C)CC[C@@H]3NC(=O)C(=O)Nc3ccc(Cl)cn3)sc2C1 [Edoxaban, N′-(5-chloropyridin-2-yl)-N-[(1S,2R, 4S)-4-(dimethylcarbamoyl)-2-[(5-methyl-6,7-dihydro-4H-[1,3]thiazolo[5,4-c]pyridine-2-carbonyl)amino]cyclohexyl]oxamide]",approx. 62%,,
"O=C(NC[C@H]1CN(c2ccc(N3CCOCC3=O)cc2)C(=O)O1)c1ccc(Cl)s1 [Rivaroxaban, 5-chloro-N-[[(5S)-2-oxo-3-[4-(3-oxomorpholin-4-yl)phenyl]-1,3-oxazolidin-5-yl]methyl]thiophene-2-carboxamide]",80%-100,16.8-24.5%,60-80%
